Patent US7824668B2, “Compositions for attracting stink bugs” (Cotton Incorporated, priority 2006, dated 2010)

Key:
Assay type in all cases: in vivo
[1] = test system: Euschistus tristigmus; test: Tedders trap field capture of Euschistus tristigmus, pheromone with vs without geraniol synergist; settings: soybean field; 160 mg geraniol + 200 mg methyl (2E,4Z)-decadienoate vs 200 mg methyl (2E,4Z)-decadienoate alone; Pr>t 0.04
Protocol: An experiment was carried out near Starkville, Oktibbeha County in Mississippi to study the response of Euschistus tristigmus in a crop field to a pheromone synergist. The crop field was a soybean field bordered on two sides by woods. Geraniol was used as a synergist with methyl (2E,4Z)-decadienoate, a pheromone for Euschistus tristigmus. Tedders traps were used in the experiment. Each trap was baited with 160 mg geraniol and 200 mg methyl (2E,4Z)-decadienoate and each control trap was baited with 200 mg methyl (2E,4Z)-decadienoate. The control trap contained no geraniol or other synergists. The trapped adult insects of Euschistus tristigmus were collected on a daily basis and the total number of trapped insects was counted. Statistical analysis was done using the Least Squares means separation from the SAS GLM procedure.

[2] = test system: Euschistus servus; test: Tedders trap field capture of Euschistus servus, pheromone with vs without geraniol synergist; settings: 160 mg geraniol + 200 mg methyl (2E,4Z)-decadienoate vs pheromone alone
Protocol: An experiment was carried out near Starkville, Oktibbeha County in Mississippi to study the response of Euschistus servus to a pheromone synergist. Geraniol was used as a synergist with methyl (2E,4Z)-decadienoate, a pheromone for Euschistus servus. Tedders traps were used in the experiment. Each treatment trap was baited with 160 mg geraniol and 200 mg methyl (2E,4Z)-decadienoate and each control trap was baited with 200 mg methyl (2E,4Z)-decadienoate. The control trap contained no geraniol or any other synergist. The trapped adult insects of Euschistus servos were collected on a daily basis and their total numbers were counted. Statistical analysis was done using the Least Squares means separation from the SAS GLM procedure.

[3] = test system: Euschistus species; test: Tedders trap field capture of Euschistus species, pheromone with vs without geraniol synergist; settings: soybean field, Monticello, Ark.; 160 mg geraniol + 200 mg methyl (2E,4Z)-decadienoate vs pheromone alone; Pr>t 0.09
Protocol: An experiment was carried out in Monticello, Ark. to study the response of Euschistus species in a soybean field to a pheromone synergist. Geraniol was used as a synergist to methyl (2E,4Z)-decadienoate, which is a pheromone for both Euschistus species. […] traps were used in the experiment. Each treatment trap was baited with 160 mg geraniol and 200 mg methyl (2E,4Z)-decadienoate and each control trap was baited with 200 mg methyl (2E,4Z)-decadienoate. The control traps contained no geraniol or any other synergist. The trapped adult insects of Euschistus species were collected on a daily basis and their total numbers were counted. Statistical analysis was done using the Least Squares means separation from the SAS GLM procedure.

SMILES: CC(C)=CCC/C(C)=C/CO [geraniol, E-(3,7)-Dimethyl-2,6-octadien-1-ol]
- increase in the number of captured Euchistus tristigmus [1]: ~75%
- increase in the number of captured bugs ([2]; crepe myrtle field, Pr>t 0.51): ~72%
- increase in the number of captured bugs ([2]; field of mixed crops of plum and okra, Pr>t 0.02): ~92%
- increase in the number of captured bugs ([2]; new-peach field, Pr>t 0.05): ~251%
- increase in the number of captured bugs ([2]; old-peach field, Pr>t 0.02): ~122%
- increase in the number of captured bugs ([2]; soybean field, Pr>t 0.61): ~14%
- increase in the number of captured bugs [3]: ~269%
